Test system: 349418-098-R-PDC complex spheroid viability
Assay: Anticancer human tumor 349418-098-R-PDC patient-derived lung adenocarcinoma cell line growth inhibition [RAS]
Settings: for viability, T/C: stronger effect = lower value; active = viability on the fitted dose curve at most 10% of control; inactive = the rest
Source text: RAS pathway inhibitors in Combinations in Complex Spheroids
A high-throughput screen of multi-cell type tumor spheroids was designed to identify active combinations of RAS pathway inhibitors and targeted small molecules. Complex spheroids include a stromal component modeled by human endothelial cells (HUVEC) and fibroblasts modeled by human mesenchymal stem cells (MSCs). The concentration ranges selected for each drug and investigational agent were based upon clinically achievable concentrations if the clinical Cmax of the agent was known.
Compounds. The drugs and investigational agents: abemaciclib (NSC768073), cobimetinib (NSC768068), divarasib (GDC6063, NSC841802), docetaxel (NSC628503), GDC-1971 (RLY-1971, NSC841576), gemcitabine (NSC613327), inavolisib (NSC800729), ipatasertib (NSC767898), KB-0742 (NSC834161), MRTX-1133 (NSC836407), osimertinib (NSC779217), RMC-4630 (NSC839698), RMC-6236 (NSC851965), RMC-6291 (NSC852671), Ro-3306 (NSC812927), sapanisertib (NSC764658), SN-38 (NSC673596), staurosporine (NSC755774), SY5609 (NSC837396), and tovorafenib (DAY101, NSC766906), were obtained from the National Cancer Institute (NCI) Developmental Therapeutics Program Chemical Repository. The FDA-approved anticancer drug set is available from the NCI Developmental Therapeutics Program. […] The stock solutions were prepared in dimethyl sulfoxide (DMSO, Sigma-Aldrich, St. Louis, MO, cat. D2650) at 800-fold the tested concentration and stored at -70 degrees C prior to their use. All drugs and investigational agents were tested over a range starting from a high concentration at or near the clinical Cmax and decreasing in half-log increments. If the clinical Cmax for an agent had not been determined, the highest concentration tested was 10 microM.
Cell Culture. All cells were maintained in an incubator at 37 degrees C and 5% CO2 with 95% humidity. The PDC lines were cultured according to standard operating procedures established by the NCI PDMR. All PDCs were thawed and cultured in Matrigel-coated flasks prepared with a working solution of 1X Ham's F-12 nutrient mix, without supplementation (Invitrogen, Waltham, MA, cat. 11765054), 100 U/mL penicillin-streptomycin (Invitrogen, cat. 15140122), and 2.5% Matrigel (Corning Inc., Corning, NY, cat. 354248) for the first three passages. The 362531-283-R-J2-PDC and 782815-120-R-J1-PDC lines were cultured in 6C/Colon 1B media, which includes advanced DMEM/F-12 (Thermo Fisher Scientific, cat. 12634028), 10 mM HEPES (Thermo Fisher Scientific, cat. 15630080), 1X GlutaMAX supplement (Thermo Fisher Scientific, cat. 35050061), 0.1 mg/mL primocin (InvivoGen, San Diego, CA, cat. ant-pm-2), 10% defined fetal bovine serum, heat inactivated (HyClone Laboratories Inc., Logan, UT, cat. SH30070.03HI), 50% L-WRN conditioned media (ATCC, cat. CRL-3276), 1.25 mM N-Acetyl-L-cysteine (Sigma-Aldrich, cat. A9165), 10 mM nicotinamide (Sigma-Aldrich, cat. N0636), 1X B-27 supplement (Thermo Fisher Scientific, cat. 17504044), 1X N-2 supplement (Thermo Fisher Scientific, cat. 17502048), 50 ng/mL human EGF (Thermo Fisher Scientific, cat. PHG0311), and 10 microM Y-27632 dihydrochloride (Tocris Bioscience, cat. 1254). The K12877-001-R-J1-PDC line was cultured in 6I media, which includes all 6C/Colon 1B media plus 10 ng/mL human FGF-10 (PeproTech, cat. 100-26), 1 ng/mL human FGF-2 (PeproTech, cat. 100-18B), 1 µM prostaglandin E2 (Tocris Bioscience, cat. 2296), […] hydrocortisone (Sigma-Aldrich, cat. H4001), and […] bovine insulin (Sigma-Aldrich, cat. I6634). The K86415-001-R-J1-PDC line was cultured in 6D media, which includes all 6C/Colon 1B media components minus the L-WRN conditioned media. The 485176-168-R4-J1-PDC was cultured in PANC media, which includes all 6C/Colon 1B media plus 100 ng/mL human FGF-10 (PeproTech, cat. 100-26), 500 nM SB-431542 (Selleckchem, cat. S1067), and 10 nM gastrin (Tocris Bioscience, cat. 3006). […]
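Also: spheroids exposed to compound for seven days before viability readout.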

CCN1CCN(Cc2ccc(Nc3ncc(F)c(-c4cc(F)c5nc(C)n(C(C)C)c5c4)n3)nc2)CC1 + CCn1c(-c2cc(N3CCN(C)CC3)cnc2C(C)OC)c2c3cc(ccc31)-c1csc(n1)CC(NC(=O)C1CC1C)C(=O)N1CCCC(N1)C(=O)OCC(C)(C)C2
17.1 nM: IC50 (curve of first compound, second compound 0.00949 µM)
inactive: viability, T/C (second compound 0.000949 µM, first compound 0.00316 µM) 96.6% | viability, T/C (second compound 0.000949 µM, first compound 0.01 µM) 68.5% | viability, T/C (second compound 0.000949 µM, first compound 0.0316 µM) 33.4% | viability, T/C (second compound 0.000949 µM, first compound 0.1 µM) 28.7% | viability, T/C (second compound 0.000949 µM, first compound 0.316 µM) 20.4% | viability, T/C (second compound 0.000949 µM, first compound 1 µM) 15.3% | viability, T/C (second compound 0.003 µM, first compound 0.00316 µM) 93.4% | viability, T/C (second compound 0.003 µM, first compound 0.01 µM) 59.7% | viability, T/C (second compound 0.003 µM, first compound 0.0316 µM) 38.5% | viability, T/C (second compound 0.003 µM, first compound 0.1 µM) 19.3% | viability, T/C (second compound 0.003 µM, first compound 0.316 µM) 20.3% | viability, T/C (second compound 0.003 µM, first compound 1 µM) 14% | viability, T/C (second compound 0.00949 µM, first compound 0.00316 µM) 103% | viability, T/C (second compound 0.00949 µM, first compound 0.01 µM) 63.4% | viability, T/C (second compound 0.00949 µM, first compound 0.0316 µM) 35.3% | viability, T/C (second compound 0.00949 µM, first compound 0.1 µM) 18.5% | viability, T/C (second compound 0.00949 µM, first compound 0.316 µM) 20% | viability, T/C (second compound 0.00949 µM, first compound 1 µM) 12.7% | viability, T/C (second compound 0.03 µM, first compound 0.00316 µM) 104% | viability, T/C (second compound 0.03 µM, first compound 0.01 µM) 85.5% | viability, T/C (second compound 0.03 µM, first compound 0.0316 µM) 33% | viability, T/C (second compound 0.03 µM, first compound 0.1 µM) 19.5% | viability, T/C (second compound 0.03 µM, first compound 0.316 µM) 23.5% | viability, T/C (second compound 0.03 µM, first compound 1 µM) 15% | viability, T/C (second compound 0.0949 µM, first compound 0.00316 µM) 92.7% | viability, T/C (second compound 0.0949 µM, first compound 0.01 µM) 54.4% | viability, T/C (second compound 0.0949 µM, first compound 0.0316 µM) 58.4% | viability, T/C (second compound 0.0949 µM, first compound 0.1 µM) 33.1% | viability, T/C (second compound 0.0949 µM, first compound 0.316 µM) 23.1% | viability, T/C (second compound 0.0949 µM, first compound 1 µM) 12.8% | viability, T/C (second compound 0.3 µM, first compound 0.00316 µM) 88.1% | viability, T/C (second compound 0.3 µM, first compound 0.01 µM) 60.1% | viability, T/C (second compound 0.3 µM, first compound 0.0316 µM) 42.8% | viability, T/C (second compound 0.3 µM, first compound 0.1 µM) 32.3% | viability, T/C (second compound 0.3 µM, first compound 0.316 µM) 22% | viability, T/C (second compound 0.3 µM, first compound 1 µM) 14.6%
28.7 nM: IC50 (curve of first compound, second compound 0.0949 µM)
21.8 nM: IC50 (curve of first compound, second compound 0.03 µM)
19.3 nM: IC50 (curve of first compound, second compound 0.000949 µM)
16.4 nM: IC50 (curve of first compound, second compound 0.003 µM)
20.6 nM: IC50 (curve of first compound, second compound 0.3 µM)

CC(=O)OC12COC1CC(O)C1(C)C(=O)C(O)C3=C(C)C(OC(=O)C(O)C(NC(=O)OC(C)(C)C)c4ccccc4)CC(O)(C(OC(=O)c4ccccc4)C21)C3(C)C (stereo not drawn) + C#Cc1c(F)ccc2cc(O)cc(-c3ncc4c(N5CC6CCC(C5)N6)nc(OCC56CCCN5CC(F)C6)nc4c3F)c12
< 31.6 nM: IC50 (curve of first compound, second compound 0.0316 µM) | IC50 (curve of first compound, second compound 0.1 µM) | IC50 (curve of first compound, second compound 0.316 µM) | IC50 (curve of first compound, second compound 1 µM) | IC50 (curve of first compound, second compound 3.16 µM) | IC50 (curve of first compound, second compound 10 µM)
inactive: viability, T/C (second compound 0.0316 µM, first compound 0.0316 µM) 16.5% | viability, T/C (second compound 0.0316 µM, first compound 0.1 µM) 15.4% | viability, T/C (second compound 0.0316 µM, first compound 0.316 µM) 21.2% | viability, T/C (second compound 0.0316 µM, first compound 1 µM) 19.1% | viability, T/C (second compound 0.0316 µM, first compound 3.16 µM) 19.9% | viability, T/C (second compound 0.0316 µM, first compound 10 µM) 22.4% | viability, T/C (second compound 0.1 µM, first compound 0.0316 µM) 16.3% | viability, T/C (second compound 0.1 µM, first compound 0.1 µM) 23.3% | viability, T/C (second compound 0.1 µM, first compound 0.316 µM) 19.9% | viability, T/C (second compound 0.1 µM, first compound 1 µM) 18.4% | viability, T/C (second compound 0.1 µM, first compound 3.16 µM) 24.4% | viability, T/C (second compound 0.1 µM, first compound 10 µM) 27% | viability, T/C (second compound 0.316 µM, first compound 0.0316 µM) 16.1% | viability, T/C (second compound 0.316 µM, first compound 0.1 µM) 19.1% | viability, T/C (second compound 0.316 µM, first compound 0.316 µM) 26% | viability, T/C (second compound 0.316 µM, first compound 1 µM) 21.1% | viability, T/C (second compound 0.316 µM, first compound 3.16 µM) 23.3% | viability, T/C (second compound 0.316 µM, first compound 10 µM) 24.5% | viability, T/C (second compound 1 µM, first compound 0.0316 µM) 16.8% | viability, T/C (second compound 1 µM, first compound 0.1 µM) 16.6% | viability, T/C (second compound 1 µM, first compound 0.316 µM) 21.4% | viability, T/C (second compound 1 µM, first compound 1 µM) 18.2% | viability, T/C (second compound 1 µM, first compound 3.16 µM) 19.1% | viability, T/C (second compound 1 µM, first compound 10 µM) 24.4% | viability, T/C (second compound 3.16 µM, first compound 0.0316 µM) 13.2% | viability, T/C (second compound 3.16 µM, first compound 0.1 µM) 17.9% | viability, T/C (second compound 3.16 µM, first compound 0.316 µM) 17.5% | viability, T/C (second compound 3.16 µM, first compound 1 µM) 24.6% | viability, T/C (second compound 3.16 µM, first compound 3.16 µM) 31.2% | viability, T/C (second compound 3.16 µM, first compound 10 µM) 23.4%
active: viability, T/C (second compound 10 µM, first compound 0.0316 µM) 7.77% | viability, T/C (second compound 10 µM, first compound 0.1 µM) 5.42% | viability, T/C (second compound 10 µM, first compound 0.316 µM) 9.77% | viability, T/C (second compound 10 µM, first compound 1 µM) 6.32% | viability, T/C (second compound 10 µM, first compound 3.16 µM) 7.62% | viability, T/C (second compound 10 µM, first compound 10 µM) 5.03%

NC1c2ccccc2OC12CCN(c1cnc3c(N4CCCc5ncccc54)n[nH]c3n1)CC2 (stereo not drawn)
inactive: viability, T/C (compound 0.0316 µM) 102% [middle of 4 runs] | viability, T/C (compound 3.16 µM) 98.5% [middle of 4 runs] | viability, T/C (compound 10 µM) 68.6% [middle of 4 runs]
> 10000 nM: IC50 (curve of compound)

Reference: PubChem BioAssay AID2060904 (Molecular Pharmacology Branch, DTP, NCI, 2025)
